Six compounds from patent publication US10000469B2, “Heat shock protein 70 (hsp-70) receptor ligands” (Duke University, priority 2014, dated 2018) can be followed below.

The structures appear in SMILES notation.

One assay deals with Hsp70i (Homo sapiens, UniProt P0DMV8). Briefly: Thermofluor assay, purified Hsp70i. In kind it is binding. Set-up: Full length Hsp70 (black arrow) and tryptic fragments (blue arrows); His tag (cleaved yes); made in house. The conditions noted are these: for effect on Tm of Hsp70i: compound alone; for increase of the Tm of Hsp70i: nucleotide alone, FIG. 4E/4G. The protocol: Protein Purification: Plasmids were provided for human HSPA1A, HSPA8, and HSPA1A C306D. Plasmids were transformed in Rosetta competent cells and single colonies were picked from streaked LB/ampicillin/chloramphenicol plates. Cultures were grown at 37° C. for 4-6 hours, were cooled to 15° C. and expression was induced overnight with 200 uM isopropyl 1-thio-β-D-galactopyranoside. Cells were pelleted and resuspended in Ni-lysis buffer (50 mM Na2HPO4, 300 mM NaCl, 10 mM Imidazole, 0.05% Tween-20) supplemented with Complete Mini protease inhibitor tablets (Roche, Mannheim, Germany) and […], and then sonicated. The cells were again pelleted and the supernatant was incubated with complete His-Tag purification resin (Roche, Mannheim, Germany) for 5 hours at 4° C. The resin was washed with Ni-wash buffer (50 mM Na2HPO4, 300 mM NaCl, 20 mM Imidazole, 0.05% Tween-20) and eluted with Ni-elution buffer (50 mM Na2HPO4, 300 mM NaCl, 250 mM Imidazole, 0.05% Tween-20). The elution was then incubated with tobacco etch virus protease overnight at 4° C. The following day the elution was incubated with the γ-phosphate ATP sepharose resin for 30 minutes at 4° C. Next the resin was washed with ATP-wash buffer (50 mMTris-HCl, 60 mM MgCl2, 60 mM KCl, 10 mM Citrate) supplemented with 1 mM DTT and then ATP-wash buffer supplemented with 2 mM ATP was added to the resin to elute the protein. The final elutions were concentrated in Amicon Ultra-15 Centrifugal Filter Units (EMD Millipore, Billerica, Mass.) and buffer exchanged into 25 mM HEPES, 5 mM MgCl2, 10 mM KCl (pH 7.5) and stored at −80° C. until use.
(§1) Thermofluor Assay: SYPRO orange (Molecular Probes, Eugene, Oreg.) was diluted 1:1000 in 25 mM HEPES, 5 mM MgCl2, 10 mM KCl (pH 7.5) and purified Hsp70i, Hsc70, Hsp70i C306, or Hsp90, was then added to a final dilution of 0.04 mg/ml. Where indicated 0.001% or 0.01% Triton X-100 (Sigma) was also added. The indicated compound or DMSO was then added at the specified concentration and each sample was added as 5 replicates to a 384 well plate (BioRad, Hercules, Calif.). A melt curve protocol (25° C. to 90° C., increasing 0.5° C. and a plate reading every 30 seconds) was run on a CFX384 Touch™ Real-Time PCR Detection System (BioRad). To determine the midpoint of the protein unfolding transition or Tm, GraphPad Prisim4 (La Jolla, Calif.) was used to normalize the melt curve and to calculate the first derivate of the melt curve, with the steepest point of the slope being the Tm.
A general note: DSF heats the sample and reads unfolding from a dye or from intrinsic fluorescence.

The next assay deals with Hsp90. Briefly: Thermofluor assay, Hsp90. In kind it is binding. The method, then: as §1
A further assay concerns Her2 and Akt. The assay is described as follows: Degradation assay (Western blot of client proteins). The format is cell-based. The conditions noted are these: compound alone. The protocol:
Western Blotting: SDS-PAGE was carried out using Criterion™ Cell system using pre-casted 4-20% or 4-15% Criterion™ Tris-HCl gels (BioRad, Hercules, Calif.). For Western blotting gels were run at 200V for 1 hour using the PowerPac basic power supply (BioRad, Hercules, Calif.). Next, gels were transferred to nitrocellulose for blotting at 100V for 1 hour (Fisher Scientific, Waltham, Mass.). Nitrocellulose membranes were blocked with 5% dry non-fat milk in phosphate-buffered saline (PBS) with 0.01% Tween-20 for 1 hour at room temperature. Membranes were incubated with primary antibodies (1:1000 dilution) overnight at 4° C. The next day membranes were washed 3× in PBS-Tween, incubated for 1 hour at room temperature with secondary antibodies, and further washed 3× in PBS-Tween. ECL Plus Western blotting reagent (Pierce Biotechnology, Rockford, Ill.) was used to detect antibodies. GFP, Her2, Akt, Hsp70, Hsc70, Grp78, Grp75, and Hsp90 primary antibodies and all associated secondary antibodies were purchased from Cell Signaling Technology (Danvers, Mass.).
Degradation Assay: The specified cells were seeded overnight and then treated with the indicated concentration of compound for 24 hours. The cells were then harvested and subjected to analysis by Western blot.

In a further assay the test system is MCF7. Briefly: Cell proliferation, MCF7. The format is cell-based. The method, then: (§2) Cell Proliferation: Cell proliferation was determined using a Hoechst stain (Sigma, St. Louis, Mo.) to quantify DNA. 5,000 cells of the designated cell line were plated in 96 well plates and treated the next day, designated as time point 0, with the indicated concentration of the specified compound maintained for the duration of the assay. At the indicated time points the media was removed and plated frozen at −80° C. Double distilled H2O was then added and the plates were incubated at 37° C. for 1 hour. After 1 hour the plates were frozen at −80° C. After freezing the plates were thawed and Hoechst stain was diluted 1:1000 in THE buffer (10 mM Tris, 2M NaCl, 1 mM Na2EDTA). The final fluorescence was measured on the Victor X2 plate reader at 355/460 nm, and cell proliferation was determined with the formula: % Cell Proliferation=100×(Sample fluorescence−background fluorescence)/(Control fluorescence−background fluorescence).

In a further assay the test system is SkBr3. Briefly: Cell proliferation, SkBr3. In kind it is cell-based. The protocol:
as §2

For the next assay, the target named is T1, GFP-Hsp70i (Homo sapiens, UniProt P0DMV8).
T1 construct: host or cells: HEK 293T
Briefly: FLECS elution of GFP-Hsp70i from γ-phosphate-linked ATP resin. The format is binding. The protocol: (§3) FLECS Screen: A pEGFP-tagged Hsp70i was (plasmid 15215, Addgene, Cambridge, Mass.) used in the FLECS assay and was originally cloned according to [Zeng et al. (2004). Hsp70 dynamics in vivo: effect of heat shock and protein aggregation. Journal of cell science 117, 4991-5000]. ATP used in the assay was purchased from Sigma (St. Louis, Mo.) and a 200 mM stock was prepared with low salt buffer (150 mM NaCl, 25 mM Tris, pH 7.5, 60 mM MgCl2). The γ-phosphate ATP sepharose was synthesized as previously described and stored in low salt buffer [Haystead et al. (1993). Gamma-phosphate-linked ATP-sepharose for the affinity purification of protein kinases. Rapid purification to homogeneity of skeletal muscle mitogen-activated protein kinase kinase. European journal of biochemistry/FEBS 214, 459-467]. FuGENE 6 transfection reagent (Roche, Mannheim, Germany) was used for transfection of GFP-Hsp70i into HEK 293T cells, following the manufacturer protocol. The transfection ensued for 48 hours, upon which time the cells were harvested and lysed in cell lysis buffer (150 mM NaCl, 50 mM Tris, pH 7.5, 1% Triton X-100, 1 mM EDTA, 1 mM DTT, and 1 tablet Complete Mini protease inhibitor (Roche)). Cell lysates were stored at −80° C. until further use. Upon binding the resin lysates were washed 3× with high stringency wash buffer (1 M NaCl, 25 mM Tris, pH 7.5, 60 mM MgCl2, 1 mM DTT) and 3× with low stringency wash buffer (150 mM NaCl, 25 mM Tris, pH 7.5, 60 mM MgCl2, 1 mM DTT). […]
Assembly of a focused library, consisting of 3379 purine like compounds, was described previously [Carlson et al. (2013). Fluorescence Linked Enzyme Chemoproteomic Strategy for Discovery of a Potent and Selective DAPK1 and ZIPK Inhibitor. […] The lysates were eluted from the filter plate onto a catch plate by centrifugation and the fluorescence of the eluates was measured. […] Next, the presence of GFP-Hsp70i in the eluates from the 197 primary hits was determined by Western blot. […]

The subject of assay [1] is Hsp70i, Hsc70, Grp78, Grp75, Hsp90. The assay is described as follows: Elution of HEK 293T cell lysate proteins from the ATP resin (silver stain, Western blot). The format is binding. As to conditions: Western blot. The protocol:
as §3, with “DTT). Next the lysates were transferred to 0.2 μm PVDF filter 96-well plate (Corning, Corning, N.Y.) sitting on top of a black flat-bottomed 96-well catch plate (Corning).” for “DTT).”
HS-72 specifically targets Hsp70i over other members of the Hsp70 superfamily. […] To more thoroughly determine the specificity of HS-72 for Hsp70i, the HEK 293T eluates were also analyzed for other Hsp70 family members Hsc70, Grp78, and Grp75, as well as Hsp90 by Western blot. […] The linker on the resin was cleaved using sodium dithionite and the samples were subjected to SDS-PAGE and analyzed by Western blot, silver stain, and mass spectrometry. […]

Chain of Hsp70i (P0DMV8 whole entry, the tested form may be a part): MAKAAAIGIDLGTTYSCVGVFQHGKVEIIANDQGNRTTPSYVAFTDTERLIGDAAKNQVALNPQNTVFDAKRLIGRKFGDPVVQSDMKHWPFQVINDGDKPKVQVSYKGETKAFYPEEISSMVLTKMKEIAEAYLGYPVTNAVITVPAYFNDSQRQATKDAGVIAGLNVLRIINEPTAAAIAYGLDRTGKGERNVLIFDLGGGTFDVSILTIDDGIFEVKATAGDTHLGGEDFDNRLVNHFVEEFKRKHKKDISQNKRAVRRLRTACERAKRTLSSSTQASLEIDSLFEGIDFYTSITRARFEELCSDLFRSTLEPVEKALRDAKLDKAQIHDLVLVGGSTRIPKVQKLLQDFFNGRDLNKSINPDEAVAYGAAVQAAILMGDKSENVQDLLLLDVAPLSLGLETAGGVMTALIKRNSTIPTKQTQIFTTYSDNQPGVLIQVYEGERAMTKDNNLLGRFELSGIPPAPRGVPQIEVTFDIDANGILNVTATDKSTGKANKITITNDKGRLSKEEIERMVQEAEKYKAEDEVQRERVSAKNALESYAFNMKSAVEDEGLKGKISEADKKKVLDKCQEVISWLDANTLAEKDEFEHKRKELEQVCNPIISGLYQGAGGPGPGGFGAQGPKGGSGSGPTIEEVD
T1 sequence (P0DMV8 whole entry): as the sequence (P0DMV8 whole entry, the tested form may be a part) above

For `N#Cc1ccc(COC[C@H]2O[C@@H](n3c(NCc4ccc(Cl)c(Cl)c4)nc4c(N)ncnc43)[C@H](O)[C@@H]2O)cc1` [VER, VER-15508, reference compound], on Hsp70i, the “effect on Tm of Hsp70i” value is listed as “increase”.
Consider `Cc1nn(-c2ccc(C(N)=O)c(N[C@H]3CC[C@H](O)CC3)c2)c2c1C(=O)CC(C)(C)C2` [HS-10, 2-(((1r,4r)-4-hydroxycyclohexyl)amino)-4-(3,6,6-trimethyl-4-oxo-4,5,6,7-tetrahydro-1H-indazol-1-yl)benzamide, reference compound], for which the “increase of the Tm of Hsp90” value in the assay on Hsp90 was found to be 10.5 °C. For the same compound, the “Tm of Hsp90 in presence of compound” value in the assay with Hsp90 (from 50° C. without compound) stood at 60.5 °C. In the assay with Her2 and Akt, the Hsp70 protein levels result is given as “increased Hsp70 protein levels”. For the same compound, in the assay on Her2 and Akt (BT474 breast cancer cells), the “Akt and Her2 expression” value is “induced degradation of Her2 and Akt”.
For the compound `NS(=O)(=O)C#Cc1ccccc1` [PES, pifithrin-μ, reference compound], the “effect on Tm of Hsp70i” value at Hsp70i is “no dose dependent effect”.
Consider `CCCn1c(NC(=O)[C@@H]2CCCN(c3cnccn3)C2)nc2ccccc21` [HS-71, (R)—N-(1-propyl-1H-benzo[d]imidazol-2-yl)-1-(pyrazin-2-yl)piperidine-3-carboxamide], for which the cell proliferation entry in the assay on MCF7 (MCF7, 24 hours) is “no effect on proliferation”; in the assay with MCF7 (MCF7, 48 hours at 25 uM and 50 uM), “inhibition”; in the assay on SkBr3 (SkBr3, 48 and 72 hours at 25 uM and 50 uM), “inhibition in proliferation”; with SkBr3 (SkBr3, 24 hours), “no effect on proliferation”. Further, the “cell proliferation, concentration with significant inhibition” value with MCF7 (MCF7, 72 hours) is reported as 50 uM alone. For the same compound, the “effect on Tm of Hsp70i” value at Hsp70i is “does not change”. For the same compound, the “effect on Tm of the ATP bound Hsp70i” value on Hsp70i (in presence of ATP) is reported as “does not change”.
In the case of `Nc1ncnc2c1ncn2[C@@H]1O[C@H](COP(=O)(O)OP(=O)(O)O)[C@@H](O)[C@H]1O` [ADP, reference compound], the “nucleotide concentration needed to release bound GFP-Hsp70i from the γ-linked ATP resin” value on GFP-Hsp70i is “mM”. Moreover, at Hsp70i, the “effect on Tm of Hsp70i” value is recorded as “increase the Tm of Hsp70i in a dose dependent manner” and the “increase of the Tm of Hsp70i” value amounted to 2.5 °C.
`Nc1ncnc2c1ncn2[C@@H]1O[C@H](COP(=O)(O)OP(=O)(O)OP(=O)(O)O)[C@@H](O)[C@H]1O` [ATP, reference compound]: the “nucleotide concentration needed to release bound GFP-Hsp70i from the γ-linked ATP resin” value on GFP-Hsp70i is “low μM”. In addition, in assay [1], the “Hsp70 family members and Hsp90 eluted from the ATP resin” value is “All the Hsp70 family members and Hsp90 are eluted”. Further, on Hsp70i, the “effect on Tm of Hsp70i” value is given as “increase the Tm of Hsp70i in a dose dependent manner” and the “increase of the Tm of Hsp70i” value is 3 °C.
